Laboratory results: patent publication EP1101821A1, “NOVEL PROTEIN AND ITS DNA” (Takeda Chemical Industries, Ltd., priority 1998, dated 2000)

Target: recombinant human lung-derived phosphodiesterase V (Homo sapiens, UniProt O76074)
Assay: Inhibitor screening system: [3H]cGMP SPA phosphodiesterase enzyme assay
Method: A 96-well microplate (OPTI Plate, Packard) received 10 µL of a buffer solution [0.5M Tris-HCl (pH7.5), 83 mM MgCl2, 17 mM EGTA], 10 µL of the recombinant human lung-derived phosphodiesterase V obtained in Example 3 (0.025 mg/ml), 65 µL of an ultrapure water, 5 µL of an inhibitor sample and 10 µL of [^3H]cGMP, and reacted at 30°C for 30 minutes. After completion of the reaction, 50 µL of a SPA beads solution [18 mg/ml Yttrium silicate beads, 18 mM ZnSO4] was added and allowed to stand at room temperature for about 20 minutes, and then subjected to a scintillation counting (Topcount, Packard).

- IC50: 2.29 nM
SMILES: Cc1c2c(c(-c3ccc(F)cc3)c3c4c(ccc13)OCO4)C(=O)NC2=O [Formula 1]
